Test results as given in patent publication US7989459B2, “Purinones and 1H-imidazopyridinones as PKC-theta inhibitors” (Pharmacopeia, LLC, priority 2006, dated 2011).

Key:
Assay type in all cases: biochemical
PKC alpha = PKC alpha (Homo sapiens, UniProt P17252); assay: Ki Pan Vera (PV) PKC alpha
Protocol: [Worded in the source for another target; this target is reported under the same test.] (§1) For Ki Pan Vera (PV) of PKCθ, entries identified with “A” had values below 100 nM; entries identified with “B” had values below 1 μM.

PKC delta = PKC delta (Homo sapiens, UniProt Q05655); assay: Ki Pan Vera (PV) PKC delta
PKCθ = PKCθ (Homo sapiens, UniProt Q04759); assay: Ki Pan Vera (PV) PKCθ
Protocol: as §1

SGK1 = biological target: T1, SGK1 (Homo sapiens, UniProt O00141); assay: IC50 for kinase SGK (selectivity)
T1 sequence (O00141 1-431): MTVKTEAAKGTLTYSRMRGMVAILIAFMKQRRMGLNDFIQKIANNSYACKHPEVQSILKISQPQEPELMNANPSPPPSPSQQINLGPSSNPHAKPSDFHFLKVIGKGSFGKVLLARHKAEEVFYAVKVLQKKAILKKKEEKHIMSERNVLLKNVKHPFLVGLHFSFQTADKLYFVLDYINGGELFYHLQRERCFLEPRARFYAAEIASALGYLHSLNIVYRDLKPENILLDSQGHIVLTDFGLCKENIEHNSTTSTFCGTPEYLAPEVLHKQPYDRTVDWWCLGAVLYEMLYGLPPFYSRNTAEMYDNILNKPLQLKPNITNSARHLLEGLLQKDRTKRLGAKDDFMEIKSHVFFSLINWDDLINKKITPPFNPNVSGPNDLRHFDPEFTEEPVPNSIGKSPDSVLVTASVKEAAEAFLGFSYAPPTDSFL
Protocol: Entries identified with “1” had values above 15 nM; entries identified with “2” had values above 100 nM; entries identified with “3” had values above 1 μM; entries identified with “4” had values above 10 μM. In Table 2, “nd” stands for “not determined.”

Sequence of PKCθ (Q04759 whole entry): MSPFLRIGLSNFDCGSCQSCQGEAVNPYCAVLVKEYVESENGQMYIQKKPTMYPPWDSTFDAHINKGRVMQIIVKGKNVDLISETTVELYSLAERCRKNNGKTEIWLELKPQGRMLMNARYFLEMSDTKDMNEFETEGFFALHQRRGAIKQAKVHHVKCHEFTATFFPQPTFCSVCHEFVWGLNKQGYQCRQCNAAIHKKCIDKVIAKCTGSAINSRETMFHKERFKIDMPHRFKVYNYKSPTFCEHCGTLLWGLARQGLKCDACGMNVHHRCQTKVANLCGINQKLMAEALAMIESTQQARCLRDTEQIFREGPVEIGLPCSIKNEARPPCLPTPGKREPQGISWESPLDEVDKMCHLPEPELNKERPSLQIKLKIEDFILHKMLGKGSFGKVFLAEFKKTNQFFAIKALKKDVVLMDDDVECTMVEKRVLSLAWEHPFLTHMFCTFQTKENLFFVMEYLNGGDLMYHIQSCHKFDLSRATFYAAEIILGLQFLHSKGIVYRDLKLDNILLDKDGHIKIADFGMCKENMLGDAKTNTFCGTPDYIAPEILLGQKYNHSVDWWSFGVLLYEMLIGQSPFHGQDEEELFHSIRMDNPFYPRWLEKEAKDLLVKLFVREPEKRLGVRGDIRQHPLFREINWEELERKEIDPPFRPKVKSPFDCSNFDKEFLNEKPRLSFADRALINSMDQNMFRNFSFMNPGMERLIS
Sequence of PKC delta (Q05655 whole entry): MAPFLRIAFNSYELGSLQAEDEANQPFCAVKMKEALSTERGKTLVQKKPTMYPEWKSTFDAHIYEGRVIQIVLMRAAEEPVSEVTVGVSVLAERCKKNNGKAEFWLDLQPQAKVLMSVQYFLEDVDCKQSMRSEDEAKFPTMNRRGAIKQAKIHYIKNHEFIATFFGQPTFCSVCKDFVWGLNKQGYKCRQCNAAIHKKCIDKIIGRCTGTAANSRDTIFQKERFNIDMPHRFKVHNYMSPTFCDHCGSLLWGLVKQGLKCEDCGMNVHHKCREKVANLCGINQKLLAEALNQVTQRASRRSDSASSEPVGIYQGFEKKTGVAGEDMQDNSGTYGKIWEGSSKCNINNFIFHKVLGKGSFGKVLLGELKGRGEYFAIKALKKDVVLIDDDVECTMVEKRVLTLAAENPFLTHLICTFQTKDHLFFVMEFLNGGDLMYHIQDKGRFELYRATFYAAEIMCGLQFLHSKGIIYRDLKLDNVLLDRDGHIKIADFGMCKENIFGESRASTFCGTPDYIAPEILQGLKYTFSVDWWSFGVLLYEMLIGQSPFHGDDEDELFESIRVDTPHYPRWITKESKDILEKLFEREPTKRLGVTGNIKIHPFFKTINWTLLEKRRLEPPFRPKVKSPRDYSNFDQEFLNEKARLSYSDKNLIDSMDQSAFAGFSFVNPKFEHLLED

SMILES	Ki (PKC alpha) [µM]	Ki (PKC delta) [µM]	Ki (PKCθ) [µM]	IC50 (SGK1) [µM]	IC50-SGK1 (nM) (SGK1)
O=c1[nH]c2cnc(NC[C@H]3CCNC3)nc2n1Cc1ccccc1Cl [Compound 103]	> 1	> 0.015	< 0.1	> 1	
O=c1[nH]c2cnc(NCC3CCNC3)nc2n1Cc1ccccc1Br (stereo not drawn) [Compound 104]	> 1	> 0.015	< 0.1	> 10	
O=c1[nH]c2cnc(NCC3CCNC3)nc2n1Cc1cc(F)ccc1C(F)(F)F (stereo not drawn) [Compound 105]	> 1	> 0.015	< 0.1	> 1	
O=c1[nH]c2cnc(NCC3CCNC3)nc2n1Cc1c(F)cccc1Cl (stereo not drawn) [Compound 106]	> 1	> 0.015	< 0.1	> 10	
O=c1[nH]c2cnc(NCC3CCNC3)nc2n1Cc1c(Cl)cccc1Cl (stereo not drawn) [Compound 108]	> 1	> 0.015	< 0.1	> 10	
O=c1[nH]c2cnc(NCC3CCNC3)nc2n1Cc1ccccc1C(F)(F)F (stereo not drawn) [Compound 109]	> 1	> 0.015	< 0.1		
O=c1[nH]c2cnc(NCC3CCNC3)nc2n1Cc1ccccc1OC(F)(F)F (stereo not drawn) [Compound 112]	> 1	> 0.1	< 0.1		Inactive
O=c1[nH]c2cnc(NCC3CCNC3)nc2n1Cc1ccccc1Cl (stereo not drawn) [Compound 113]	> 1	> 0.015	< 0.1	> 10	
O=c1[nH]c2cnc(NCC3CCNC3)nc2n1Cc1cccc(Cl)c1Cl (stereo not drawn) [Compound 114]	> 10	> 0.1	< 0.1	> 10	
O=c1[nH]c2cnc(NC[C@@H]3CCNC3)nc2n1Cc1ccccc1C(F)(F)F [Compound 116]	> 1	> 0.1	< 0.1	> 10	
NCCCNc1ncc2[nH]c(=O)n(Cc3cccc(Cl)c3Cl)c2n1 [Compound 117]	> 10	> 0.1	< 0.1		Inactive
NCCCNc1ncc2[nH]c(=O)n(Cc3c(F)cccc3Cl)c2n1 [Compound 118]	> 10	> 0.1	< 0.1		Inactive
O=c1[nH]c2cnc(NCC3CCNC3)nc2n1Cc1c(F)cccc1F (stereo not drawn) [Compound 119]	> 10	> 0.1	< 0.1		Inactive
O=c1[nH]c2cnc(NC[C@H]3CCNC3)nc2n1Cc1ccccc1C(F)(F)F [Compound 122]	> 1	> 0.1	< 0.1		Inactive
NCCCNc1ncc2[nH]c(=O)n(Cc3ccccc3Cl)c2n1 [Compound 124]	> 10	> 0.1	< 0.1	> 10	
NCCCNc1ncc2[nH]c(=O)n(Cc3ccccc3Br)c2n1 [Compound 127]	> 10	> 0.1	< 0.1	> 1	
O=c1[nH]c2cnc(NC[C@@H]3CCNC3)nc2n1Cc1ccccc1Cl [Compound 128]	> 10	> 0.1	< 1	> 10	
NCCCNc1ncc2[nH]c(=O)n(Cc3c(F)cccc3F)c2n1 [Compound 129]	> 10	> 0.1	< 0.1		Inactive
NCCCNc1ncc2[nH]c(=O)n(Cc3cc(F)ccc3C(F)(F)F)c2n1 [Compound 133]	> 10	> 0.1	< 0.1	> 1	
NCCCNc1ncc2[nH]c(=O)n(Cc3ccccc3C(F)(F)F)c2n1 [Compound 136]	> 10	> 0.1	< 0.1		Inactive

SMILES	Ki (PKC alpha) [µM]	Ki (PKC delta) [µM]	Ki (PKCθ) [µM]	IC50 (SGK1) [µM]	IC50-SGK1 (nM) (SGK1)
O=c1[nH]c2cnc(NC[C@@H]3CCCNC3)nc2n1Cc1c(Cl)cccc1Cl [Compound 138]	> 10	> 0.1	< 0.1	> 10	
NCCCNc1ncc2[nH]c(=O)n(Cc3ccccc3OC(F)(F)F)c2n1 [Compound 139]	> 10	> 1	< 1		Inactive
O=c1[nH]c2cnc(NC[C@H]3CCCNC3)nc2n1Cc1c(Cl)cccc1Cl [Compound 140]	> 10	> 0.1	< 1	> 10	
O=c1[nH]c2cnc(NC[C@H]3CCCNC3)nc2n1Cc1ccccc1Br [Compound 141]	> 10	> 0.1	< 1		Inactive
O=c1[nH]c2cnc(NC[C@H]3CCCNC3)nc2n1Cc1ccccc1C(F)(F)F [Compound 142]	> 10	> 0.1	< 1	> 10	
O=c1[nH]c2cnc(NC[C@@H]3CCCNC3)nc2n1Cc1ccccc1C(F)(F)F [Compound 144]	> 10	> 0.1	< 1	> 10	
O=c1[nH]c2cnc(NCC3CCNCC3)nc2n1Cc1ccccc1C(F)(F)F [Compound 145]	> 10	> 1	< 1		Inactive
O=c1[nH]c2ccc(NC[C@@H]3CCNC3)nc2n1Cc1c(Cl)cccc1Cl [Compound 147, (R)-3-(2,6-Dichlorobenzyl)-5-(pyrrolidin-3-ylmethylamino)-1H-imidazo[4,5-b]pyridin-2(3H)-one]	> 1	> 0.015	< 0.1	> 10	
O=c1[nH]c2ccc(NC[C@H]3CCNC3)nc2n1Cc1c(Cl)cccc1Cl [Compound 148]	> 10	> 0.1	< 0.1		
NCCCNc1ccc2[nH]c(=O)n(Cc3c(Cl)cccc3Cl)c2n1 [Compound 149]	> 10	> 0.1	< 0.1		Inactive
O=c1[nH]c2cnc(NCC3CCNCC3)nc2n1Cc1ccccc1Br [Compound 201]	> 1	> 0.1	< 1	> 10	
O=c1[nH]c2cnc(NCC3CCCNC3)nc2n1Cc1ccccc1Cl (stereo not drawn) [Compound 203]	> 10	> 0.1	< 1		Inactive
O=c1[nH]c2cnc(NCCCn3ccnc3)nc2n1Cc1c(Cl)cccc1C(F)(F)F [Compound 207]	> 10	> 0.1	< 1		
NCCCNc1ncc2[nH]c(=O)n(Cc3cccc(Cl)c3)c2n1 [Compound 214]	> 10	> 1	< 1		
O=c1[nH]c2cnc(NCC3CCNCC3)nc2n1Cc1cccc(Cl)c1 [Compound 215]	> 10	> 1	< 1		
Cc1ccccc1Cn1c(=O)[nH]c2cnc(NCCCN)nc21 [Compound 216]	> 10	> 1	< 1		
COc1ccccc1Cn1c(=O)[nH]c2cnc(NCCCN)nc21 [Compound 218]	> 10	> 1	< 1		
O=c1[nH]c2cnc(NCC3CCNCC3)nc2n1-c1cccc(Cl)c1 [Compound 224]	> 1	> 1	< 1		
O=c1[nH]c2cnc(NCC3CCNC3)nc2n1[C@@H]1CCc2ccccc21 (stereo partly drawn) [Compound 231]	> 10	> 1	< 1		
